Seven compounds from US12139508B2, “Steroid derivative regulators, method for preparing the same, and uses thereof” (JIANGSU HANSOH PHARMACEUTICAL GROUP CO., LTD., priority 2018, dated 2024) can be followed below.

Where two headings read alike, the source gives them in different places.

This data set in a line: Pharmacokinetic assay in Balb/c mice (plasma and brain tissue). The class given is in vivo. To be noted: mouse, po, 5 mg/kg p.o., male Balb/c mice; for AUC(0-t): read-out: Area under curve AUC0-t; for AUC(0-inf): read-out: Area under curve AUC0-∞; for half-life: read-out: Half-life t1/2 (converted); for MRT: read-out: Mean residence time MRT; for Tmax: read-out: Peak time tmax; for Cmax: read-out: Plasma concentration Cmax. The procedure, abridged: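 Compound levels in plasma and brain were measured by LC/MS/MS with an internal standard after protein precipitation with acetonitrile. Samples came from overnight-fasted male Balb/c mice given 5 mg/kg p.o., with cardiac blood drawn at 0–24 h. Pharmacokinetic parameters were then calculated.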

One may read the MRT as a mean duration of stay, worked out from the concentration-time curve. For orientation: Tmax means the time from dosing to the highest level. For the compound `C[C@@]1(O)CC[C@H]2[C@H](CC[C@@H]3[C@@H]2CC[C@@]2(C)[C@H]3[C@H](C3CC3)C[C@@H]2C(=O)Cn2ncnn2)C1` [Example 146, 1-((3R,5R,8R,9R,10S,13S,14S,15S,17S)-15-Cyclopropyl-3-hydroxy-3,13-dimethylhexadecahydro-1H-cyclopenta[a]phenanthren-17-yl)-2-(2H-tetrazol-2-yl)ethan-1-one], where the note is “brain tissue”, the AUC(0-t) amounted to 8680 ng·h/mL, the AUC(0-inf) was found to be 12500 ng·h/mL, the half-life is 4.66 h and the MRT amounted to 6.73 h. Further, where the note is “brain tissue”, the Tmax was found to be 1 h and the Cmax worked out at 1970 ng/mL. Where the note is “plasma”, the AUC(0-t) was determined as 7790 ng·h/mL, the AUC(0-inf) worked out at 8000 ng·h/mL, the half-life is 1.45 h and the MRT is 2.97 h. Also, under “plasma”, the Tmax worked out at 1 h and the Cmax came to 2090 ng/mL.
Take `C[C@@]1(O)CC[C@H]2[C@H](CC[C@@H]3[C@@H]2CC[C@@]2(C)[C@H]3[C@@H]3C[C@@H]3[C@@H]2C(=O)Cn2cc(C#N)cn2)C1` [Example 2, 1-(2-((2R,4aS,4bR,6aS,7S,7aS,8aR,8bR,8cR,10aR)-2-hydroxy-2,6a-dimethyloctadecahydrocyclopropa[4,5]cyclopenta[1,2-a]phenanthren-7-yl)-2-oxoethyl)-1H-pyrazole-4-carbonitrile]: for the setting “brain tissue”, the AUC(0-t) is 840 ng·h/mL, the AUC(0-inf) came to 913 ng·h/mL, the half-life was 2.84 h and the MRT amounted to 2.39 h. Moreover, where the note is “brain tissue”, the Tmax turned out to be 0.5 h and the Cmax amounted to 637 ng/mL. In addition, where the note is “plasma”, the AUC(0-t) is 1360 ng·h/mL, the AUC(0-inf) was determined as 1370 ng·h/mL, the half-life was 0.54 h and the MRT came to 1.21 h. For the same compound, under “plasma”, the Tmax came out at 0.5 h and the Cmax turned out to be 1100 ng/mL.
As for `C[C@@H]1C[C@H](C(=O)Cn2cc(C#N)cn2)[C@@]2(C)CC[C@H]3[C@@H](CC[C@@H]4C[C@](C)(O)CC[C@@H]43)[C@H]12` [Example 13, 1-(2-((3R,5R,8R,9R,10S,13S,14S,15R)-3-Hydroxy-3,13,15-trimethylhexadecahydro-1H-cyclopenta[a]phenanthren-17-yl)-2-oxoethyl)-1H-pyrazole-4-carbonitrile], where the note is “brain tissue”, the AUC(0-t) was 4730 ng·h/mL, the AUC(0-inf) stood at 4740 ng·h/mL, the half-life was 2.5 h and the MRT was found to be 3.9 h. Besides, for the setting “brain tissue”, the time to peak (Tmax) is 1 h and the Cmax worked out at 1060 ng/mL. Further, where the note is “plasma”, the AUC(0-t) came out at 5060 ng·h/mL, the AUC(0-inf) turned out to be 5070 ng·h/mL, the half-life is 2.5 h and the mean residence time (MRT) came to 3.6 h. Also, under “plasma”, the time of peak concentration (Tmax) came out at 1 h and the Cmax came to 1210 ng/mL.
As for `C[C@@]1(O)CC[C@H]2[C@H](CC[C@@H]3[C@@H]2CC[C@]2(C)C(C(=O)Cn4cc(C#N)cn4)C[C@@H](C4CC4)[C@@H]32)C1` (stereo partly drawn) [Example 71, 1-(2-((3R,5R,8R,9R,10S,13S,14S,15S)-15-Cyclopropyl-3-hydroxy-3,13-dimethylhexadecahydro-1H-cyclopenta[a]phenanthren-17-yl)-2-oxoethyl)-1H-pyrazole-4-carbonitrile], for the setting “brain tissue”, the AUC(0-t) stood at 1130 ng·h/mL, the AUC(0-inf) was determined as 1280 ng·h/mL, the half-life is 2 h and the mean residence time MRT was 3.66 h. Moreover, under “brain tissue”, the time to peak (Tmax) came out at 1 h and the Cmax turned out to be 383 ng/mL. In addition, under “plasma”, the AUC(0-t) came out at 1580 ng·h/mL, the AUC(0-inf) was determined as 1760 ng·h/mL, the half-life is 2.04 h and the MRT was 3.5 h. Where the note is “plasma”, the time of peak concentration (Tmax) was determined as 1 h and the Cmax worked out at 508 ng/mL.
Take `C[C@@]1(O)CC[C@H]2[C@H](CC[C@@H]3[C@@H]2CC[C@@]2(C)[C@H]3[C@@H]3C[C@@H]3[C@@H]2C(=O)Cn2cc(C(F)(F)F)cn2)C1` [Example 5, 1-((2R,4aS,4bR,6aS,7S,7aS,8aR,8bR,8cR,10aR)-2-Hydroxy-2,6a-dimethyloctadecahydrocyclopropa[4,5]cyclopenta[1,2-a]phenanthren-7-yl)-2-(4-(trifluoromethyl)-1H-pyrazol-1-yl)ethan-1-one]: where the note is “brain tissue”, the AUC(0-t) is 2300 ng·h/mL, the AUC(0-inf) came to 3070 ng·h/mL, the half-life was 4.72 h and the MRT stood at 5.53 h. For the same compound, for the setting “brain tissue”, the Tmax turned out to be 0.5 h and the Cmax was determined as 1410 ng/mL. Also, where the note is “plasma”, the AUC(0-t) amounted to 1240 ng·h/mL, the AUC(0-inf) came out at 1250 ng·h/mL, the half-life was 5.12 h and the mean residence time (MRT) was found to be 4.8 h. Besides, under “plasma”, the time of peak concentration (Tmax) was 0.5 h and the Cmax came to 461 ng/mL.
As to `CC[C@@H]1C[C@H](C(=O)Cn2ccc(C#N)n2)[C@@]2(C)CC[C@H]3[C@@H](CC[C@@H]4C[C@](C)(O)CC[C@@H]43)[C@H]12` [Example 137, 1-(2-((3R,5R,8R,9R,10S,13S,14S,15R,17S)-15-Ethyl-3-hydroxy-3,13-dimethylhexadecahydro-1H-cyclopenta[a]phenanthren-17-yl)-2-oxoethyl)-1H-pyrazole-3-carbonitrile], where the note is “brain tissue”, the AUC(0-t) was 2130 ng·h/mL, the AUC(0-inf) is 3160 ng·h/mL, the half-life was 6.02 h and the mean residence time (MRT) came out at 7.58 h. Also, for the setting “brain tissue”, the Tmax was 1 h and the Cmax amounted to 613 ng/mL. In addition, where the note is “plasma”, the AUC(0-t) is 2780 ng·h/mL, the AUC(0-inf) worked out at 3790 ng·h/mL, the half-life is 3.85 h and the MRT was 5.88 h. For the same compound, where the note is “plasma”, the time to peak (Tmax) was 1 h and the Cmax came to 763 ng/mL.
For `C[C@@]1(O)CC[C@H]2[C@H](CC[C@@H]3[C@@H]2CC[C@@]2(C)[C@H]3[C@H](C3CC3)C[C@@H]2C(=O)Cn2ccnn2)C1` [Example 145, 1-((3R,5R,8R,9R,10S,13S,14S,15S,17S)-15-Cyclopropyl-3-hydroxy-3,13-dimethylhexadecahydro-1H-cyclopenta[a]phenanthren-17-yl)-2-(1H-1,2,3-triazol-1-yl)ethan-1-one], under “brain tissue”, the AUC(0-t) is 4820 ng·h/mL, the AUC(0-inf) stood at 5270 ng·h/mL, the half-life was 2.09 h and the mean residence time MRT is 3.4 h. For the same compound, where the note is “brain tissue”, the time to peak (Tmax) was 1 h and the Cmax stood at 1480 ng/mL. Under “plasma”, the AUC(0-t) was 13400 ng·h/mL, the AUC(0-inf) stood at 13400 ng·h/mL, the half-life is 1.75 h and the mean residence time MRT worked out at 3.47 h. Under “plasma”, the Tmax was 1 h and the Cmax was found to be 2990 ng/mL.
